Measurements taken from patent publication US20110136876A1, “Altering Pharmacokinetics of Pirfenidone Therapy” (INTERMUNE, INC., priority 2007, published 2011).
Read-outs that look alike come from different tables or passages of the source.

How the values were obtained:
[1] = Single dose study: pharmacokinetics of pirfenidone, fasted versus fed; format: in vivo; conditions: human, plasma, 801 mg; for half-life: oral, read-out: mean absorption half life (t1/2, abs) (converted)
Procedure: (§1) A study was designed to evaluate the effect of food, antacids, and food taken with antacids on adverse events associated with pirfenidone use. The trial was conducted as a randomized, open-label, four-treatment crossover, with a single dose for each treatment period and a 2-day washout period between study treatments. 16 healthy adults between the ages of 50 and 79 years having body mass indices between 18 and 30 (inclusive) were enrolled and completed all 4 treatment arms. The treatment arms were as follows:
(§2) A) pirfenidone alone (Fasted);
(§3) B) pirfenidone within 1 minute following a dose of antacid (20 mL Mylanta® Maximum Strength Liquid) (Fasted+Antacid);
(§4) C) pirfenidone 5 minutes after completing a standard meal (Fed); and
(§5) D) pirfenidone 5 minutes after completing a standard meal, then within 1 minute, followed by a dose of antacid (Fed+Antacid).
(§6) All subjects were admitted to the clinic for clinical evaluation the day prior to receiving the first dose of the study medication and remained confined for 13 days. Following an overnight fast of at least 10 hours (h), subjects were randomized to one of the above-described 4 treatment sequences. Each dose of pirfenidone (3×267 mg capsules) was administered orally with 240 mL room temperature water on days 1, 4, 7, and 10 in the morning, following an overnight fast of at least 10 hours. The washout period between treatments was 2 days. A standard meal consisted of 2 fried eggs, 2 strips of bacon, 2 slices of toast, 2 pats of butter, hash brown potatoes (4 oz), and whole milk (8 oz).
Of 7 subjects who reported nausea, 5 of 16 (31%) were fasted compared to only 2 of 16 (13%) fed subjects. Of 5 subjects reporting dizziness, 4 of 16 (25%) were fasted, while only 1 of 16 (6%) was fed. Of 3 subjects reporting somnolence, 2 of 16 (13%) were fasted and 1 of 16 (6%) were fed. Of 3 subjects reporting headaches, 2 of 16 (13%) were fasted and 1 of 16 (6%) were fed.

[2] = Single dose study: adverse events with food, antacid, or food plus antacid; format: in vivo, human; conditions: for dizziness incidence / nausea incidence / somnolence incidence / headache incidence: of 16 subjects
Procedure: as §1, §2, §3, §4, §5, §6
On each study day, adverse events were reviewed with the patients as follows. Before administration of the first dose of the study drug, study site personnel noted the occurrence and nature of each subject's medical condition(s). During the trial, site personnel again noted any change in the condition(s) or occurrence and nature of any adverse events. The severity of adverse events were graded based on the Modified Common Toxicity Criteria and the relationship of the study drug to the adverse event determined.

[3] = Multiple dose study: adverse events on multiple ascending daily doses taken with food; format: in vivo, human
Procedure: A second study was designed to examine incidences of adverse events on multiple ascending daily doses of pirfenidone. The trial was conducted as an open-label, escalating-dose study with no washout period between dose escalations. 25 healthy adults between the ages of 45 and 79 (inclusive) having body mass indices between 18 and 30 (inclusive) were enrolled. 22 adults completed the treatment. Each volunteer received from 801 mg/day to 4005 mg/day of pirfenidone divided into three equal doses as follows:
Days 1-2: 1 capsule three times a day (TID) (801 mg total daily dose (TDD))
Day 3: 1 capsule in the morning (0800) (267 mg TDD)
Days 4-5: 2 capsules TID (1602 mg TDD)
Day 6: 2 capsules in the morning (534 mg TDD)
Days 7-8: 3 capsules TID (2403 mg TDD)
Day 9: 3 capsules in the morning (801 mg TDD)
Day 12: 4 capsules in the morning (1068 mg TDD)
Day 15: 5 capsules in the morning (1335 mg TDD)
All subjects were admitted to the clinic for clinical evaluation the day before the first dose of study medication and remained confined for 17 days. Each subject received all dose levels of the study drug unless adverse events or the clinical judgment of the trial physician precluded the continuation of treatment. All doses were taken with 240 mL room temperature water and with food (excluding grapefruit juice). TID doses times were ˜0800, ˜1200, and ˜1800.

[4] = 801 to 4005 mg/day TID with food, of 25 subjects

With `Cc1ccc(=O)n(-c2ccccc2)c1` [pirfenidone, 5-methyl-1-phenyl-2-(1H)-pyridone] as the compound, how does the half-life ([1]; with food (fed)) read?
The half-life was about 1.78 h.

And the half-life ([1]; without food (fasted))?
The half-life was about 0.572 h.

And the Cmax ([1]; po, fasted (without food), single oral dose 3x267 mg capsules, healthy adults)?
Its Cmax is 15700 ng/mL.

What about the AUC ([1]; po, fasted, single oral dose 3x267 mg capsules) of the same compound?
The AUC was 72700 ng·h/mL.

And the AUC ([1]; po, fed, single oral dose 3x267 mg capsules)?
Its AUC is 64600 ng·h/mL.

And the dizziness incidence ([2]; all treatment arms)?
The dizziness incidence was 38%.

And the nausea incidence ([2]; all treatment arms)?
Its nausea incidence is 44%.

And the somnolence incidence ([2]; all treatment arms)?
The somnolence incidence was 25%.

And the dizziness incidence ([2]; fasted)?
Its dizziness incidence is 25%.

What about the headache incidence ([2]; fasted) of the same compound?
The headache incidence was 13%.

And the nausea incidence ([2]; fasted)?
Its nausea incidence is 31%.

And the somnolence incidence ([2]; fasted)?
The somnolence incidence was 13%.

What about the dizziness incidence ([2]; fed) of the same compound?
Its dizziness incidence is 6%.

And the headache incidence ([2]; fed)?
Its headache incidence is 6%.

And the nausea incidence ([2]; fed)?
Its nausea incidence is 13%.

And the somnolence incidence ([2]; fed)?
Its somnolence incidence is 6%.

And the “subjects with at least 1 adverse event” value ([2]; in total, all treatment arms, 16 subjects)?
The value was 75%.

And the “subjects with adverse events whose adverse events were mild” value ([2]; of the 12 subjects with at least 1 adverse event)?
The value was 75%.

What about the “subjects who experienced an adverse event” value ([2]; with food (Fed), 16 subjects) of the same compound?
Its value is 31.3%.

What about the “subjects who experienced an adverse event” value ([2]; with food and antacid (Fed+Antacid), 16 subjects) of the same compound?
Its value is 25%.

And the “subjects who experienced an adverse event” value ([2]; within 1 minute following a dose of antacid (Fasted+Antacid), 16 subjects)?
The value was 56.3%.

What about the “subjects who experienced an adverse event” value ([2]; without food (Fasted), 16 subjects) of the same compound?
The value was 56.3%.

What about the “subjects with at least one adverse event” value ([3]; 801 to 4005 mg/day TID with food, 25 subjects) of the same compound?
Its value is 92%.

And the headache incidence [3, 4]?
Its headache incidence is 28%.

And the nausea incidence [3, 4]?
Its nausea incidence is 36%.

What about the somnolence incidence [3, 4] of the same compound?
Its somnolence incidence is 32%.

And the “subjects with adverse events whose adverse events were mild” value ([3]; of the 23 subjects with at least one adverse event)?
The value was 96%.
